Results taken from patent US10011568B2, “Cyclohexyl pyridine derivative” (priority 2014, dated 2018).

Tested on: cisplatin-induced retching and vomiting
Test: Effect on cisplatin-induced acute and delayed emetic response
Assay type: in vivo
Settings: ferret, 0.01 or 0.1 mg/kg iv
Procedure: The vertical axes show the number of retching and vomiting (Retches+Vomits) (the mean+standard error of 3 examples of control group, the mean+standard error of 3 examples of the group intravenously administered with 0.01 mg/kg, and the mean+standard error of 3 examples of the group intravenously administered with 0.1 mg/kg).
Effect on Cisplatin-Induced Acute and Delayed Emetic Response
The test compound solution was prepared by dissolving the test compound in a vehicle (a mixture of 50% N,N-dimetlylacetamide (Wako Pure Chemical Industries). 30% propylene glycol (Wako Pure Chemical Industries), 4% 2-hydroxypropy-β-cyclodextrin (Wako Pure Chemical Industries) and 16% distilled water). The vehicle only was administered to the control group.
Under anesthesia with isoflurane, 0.01 mg/kg or 0.1 mg/kg of the test compound was intravenously administered to a male ferret (Marshall BioResources Japan) from the jugular vein. Cisplatin in saline, which was heated to 40-50° C., was intraperitoneally administered at 5 mg/kg one hour after the drug administration.

Cc1cc(F)ccc1-c1cc([C@H]2CC[C@H](CC(=O)O)CC2)ncc1N(C)C(=O)C(C)(C)c1cc(C(F)(F)F)cc(C(F)(F)F)c1 [Example 13, trans-{4-[5-{[2-(3,5-Bistrifluoromethylphenyl)-2-methylpropionyl]methylamino}-4-(4-fluoro-2-methylphenyl)pyridin-2-yl]cyclohexyl}acetic acid]
number of retching and vomiting, delayed phase (24 hours to 72 hours after cisplatin 5 mg/kg ip): the inhibition of the number of retching and vomiting was observed
number of retching and vomiting, acute phase (up to 24 hours after cisplatin 5 mg/kg ip): the inhibition of the number of retching and vomiting was observed
